Data reported in US12582643B2, “Tasquinimod or a pharmaceutically acceptable salt thereof for use in combination therapy” (ACTIVE BIOTECH AB, priority 2020, dated 2026).

Assays:
[1] = test system: Human NCI-H929 (H929) multiple myeloma cells; assay: H929 human xenograft model, tasquinimod with bortezomib or dexamethasone (Example 1); type: in vivo; conditions: s.c. H929 in NSG mice; TQ 30 mg/kg drinking water; VEL 0.5 mg/kg i.v. every 4 days; compared to control mice; FIG. 1
Experimental: Human NCI-H929 (H929) multiple myeloma cells were inoculated subcutaneously in NSG mice. Tumour-bearing mice were treated with vehicle (VC), tasquinimod (TQ) 30 mg/kg ad lib in the drinking water starting when there were palpable tumors (i.e. day 18 after tumor inoculation); bortezomib (VEL), 0.5 mg/kg, i.v. every 4 days; dexamethasone (DEX), 10 mg/kg, i.p., 5 days on, 2 days off; or the combinations (TQ+DEX) and (TQ+VEL), and. Statistics: Two-way ANOVA; p-values VC vs TQ p=0.0009, VC vs VEL p=0.041, VC vs DEX p=0.0081, DEX vs DEX+TQ ns, TQ vs TQ+VEL p=0.0002, VEL vs VEL+TQ p=0.0361. The results are illustrated in FIG. 1.

MM1.S cells = assay: Human MM1.S xenograft model of multiple myeloma, tasquinimod with lenalidomide (Example 2); type: in vivo; conditions: s.c. MM1.S in NSG mice; TQ 30 mg/kg/day drinking water; LEN 5 mg/kg oral gavage; from day 14; compared to control mice; FIG. 2
Experimental: The effect of tasquinimod in combination with lenalidomide was studied in a human MM1.S model of multiple myeloma. The MM1.S cells were established from a patient with IgA myeloma with characteristics typical of human myeloma cells (Greenstein et al., Exp Hematol. 2003 April; 31(4):271-82). MM1.S model was established by subcutaneous inoculation of 5×10^6 MM1.S cells into NSG mice. Treatment with tasquinimod (TQ), 30 mg/kg/day in the drinking water; lenalidomide (LEN), 5 mg/kg via oral gavage, 5 consecutive days with 2 days breaks until the endpoint, or the combination of tasquinimod and lenalidomide (TQ+LEN), started when the tumors were measurable (day 14 after tumor cell injection). Tumor size was monitored using a caliper and tumor volume was calculated. Differences between groups were evaluated by using two-way ANOVA; p-values: TQ vs TQ+LEN p=0.0001, LEN vs LEN+TQ p=0.0183. The results are illustrated in FIG. 2.

SMILES | multiple myeloma tumor growth (tumour area), result in words [1] | multiple myeloma growth (tumour volume), result in words (MM1.S cells)
CC(C)C[C@H](NC(=O)[C@H](Cc1ccccc1)NC(=O)c1cnccn1)B(O)O [bortezomib, [(1R)-3-methyl-1-[[(2S)-3-phenyl-2-(pyrazine-2-carbonylamino)propanoyl]amino]butyl]-boronic acid] | reduced the multiple myeloma tumor growth | –
Nc1cccc2c1CN(C1CCC(=O)NC1=O)C2=O (stereo not shown) [lenalidomide, 3-(4-amino-1-oxoisoindolin-2-yl)piperidine-2,6-dione] | – | reduced the multiple myeloma growth
COc1cccc2c1c(O)c(C(=O)N(C)c1ccc(C(F)(F)F)cc1)c(=O)n2C [tasquinimod, 4-hydroxy-5-methoxy-N,1-dimethyl-2-oxo-N-[4-(trifluoromethyl)phenyl]-1,2-dihydroquinoline-3-carboxamide] | reduced the multiple myeloma tumor growth | reduced the multiple myeloma growth
